Like-named read-outs stand apart in the source and are kept apart here.
Target: T1, Human M4 (Homo sapiens, UniProt P08173)
T1 construct: Human or rat M4 cDNA, along with the chimeric G protein Gqi5, were transfected into Chinese hamster ovary (CHO-K1) cells; expressed in transfected cells; host or cells: CHO-K1 (Chinese hamster ovary, ATCC), stably co-expressing Gqi5
T1 sequence (P08173 1-479): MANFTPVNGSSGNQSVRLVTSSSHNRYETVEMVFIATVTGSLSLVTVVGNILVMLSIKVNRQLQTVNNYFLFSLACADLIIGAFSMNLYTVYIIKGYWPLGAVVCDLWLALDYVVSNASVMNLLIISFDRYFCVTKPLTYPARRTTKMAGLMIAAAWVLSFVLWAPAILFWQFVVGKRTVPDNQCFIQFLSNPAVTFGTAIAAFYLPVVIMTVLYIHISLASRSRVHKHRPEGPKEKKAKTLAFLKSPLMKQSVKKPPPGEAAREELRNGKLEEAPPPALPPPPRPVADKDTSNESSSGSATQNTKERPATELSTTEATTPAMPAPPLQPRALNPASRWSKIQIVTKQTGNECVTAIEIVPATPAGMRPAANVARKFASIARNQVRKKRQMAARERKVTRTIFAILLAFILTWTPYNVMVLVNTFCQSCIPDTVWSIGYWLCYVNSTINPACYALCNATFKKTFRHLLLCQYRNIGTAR
Assay: mAChR M4 cell-based functional assay (calcium flux, decrease of EC80 acetylcholine response)
Conditions: for remaining activity at 30 µM: read-out: Human M4 Emin; for IC50: M4/Gqi5/CHO-K1 cells, decrease of response to EC80 acetylcholine
Method: Human or rat M4 cDNA, along with the chimeric G protein Gqi5, were transfected into Chinese hamster ovary (CHO-K1) cells purchased from the American Type Culture Collection using Lipofectamine2000. M4/Gqi5/CHO cells were grown in Ham's F-12 medium containing 10% heat-inactivated fetal bovine serum (FBS), 20 mM HEPES, 500 μg/mL G418 sulfate, and 200 μg/mL Hygromycin B.
For high throughput measurement of agonist-evoked increases in intracellular calcium, CHO-K1 cells stably expressing muscarinic receptors were plated in growth medium lacking G418 and hygromycin at 15,000 cells/20 μL/well in Greiner 384-well black-walled, tissue culture (TC)-treated, clear-bottom plates (VWR). Cells were incubated overnight at 37° C. and 5% CO2. The next day, cells were washed using an ELX 405 (BioTek) with assay buffer; the final volume was then aspirated to 20 μL. Next, 20 μL of a 2.3 μM stock of Fluo-4/acetoxymethyl ester (Invitrogen, Carlsbad, Calif.), prepared as a 2.3 mM stock in DMSO and mixed in a 1:1 ratio with 10% (w/v) Pluronic F-127 and diluted in assay buffer, was added to the wells and the cell plates were incubated for 50 min at 37° C. and 5% CO2. Dye was removed by washing with the ELX 405 and the final volume was aspirated to 20 μL. Compound master plates were formatted in a 10 point concentration-response curve (CRC) format (1:3 dilutions) in 100% DMSO with a starting concentration of 10 or 1 mM using a BRAVO liquid handler (Agilent). Test compound CRCs were then transferred to daughter plates (240 nL) using the Echo acoustic plate reformatter (Labcyte, Sunnyvale, Calif.) and then diluted into assay buffer (40 μL) to a 2×stock using a Thermo Fisher Combi (Thermo Fisher Scientific, Waltham, Mass.).
Calcium flux was measured using the Functional Drug Screening System (FDSS) 6000 or 7000 (Hamamatsu Corporation, Tokyo, Japan) as an increase in the fluorescent static ratio. Compounds were applied to cells (20 μL, 2×) using the automated system of the FDSS at 2 seconds into the protocol and the data were collected at 1 Hz. At 143 s, 10 μL of an EC20 concentration of the muscarinic receptor agonist acetylcholine was added (5×), followed by the addition of 12 μL of an EC80 concentration of acetylcholine at the 268 s time point (5×). Agonist activity was analyzed as a concentration-dependent increase in calcium mobilization upon compound addition. Positive allosteric modulator activity was analyzed as a concentration-dependent increase in the EC20 acetylcholine response. Antagonist activity was analyzed as a concentration-dependent decrease in the EC80 acetylcholine response; for the purposes of the tables herein, an IC50 (inhibitory concentration 50) was calculated as a concentration-dependent decrease of the response elicited by an EC80 concentration of acetylcholine. Concentration-response curves were generated using a four-parameter logistical equation in XLFit curve fitting software (IDBS, Bridgewater, N.J.) for Excel (Microsoft, Redmond, Wash.) or Prism (GraphPad Software, Inc., San Diego, Calif.) or the Dotmatics software platform (Dotmatics, Bishop's Stortford, UK).
Compounds were synthesized as described above. Activity (IC50 and Emin) was determined in the mAChR M4 cell-based functional assay as described above and the data are shown in Table 2.

| Compound | remaining activity at 30 µM (% ACh maximum at 30 μM) [%] | IC50 [µM] | Human M4 Emin (% ACh maximum at 30 μM) [%] | remaining activity at 30 µM [%] |
| --- | --- | --- | --- | --- |
| Cn1cc2cc(-c3cc(C(F)(F)F)c(N[C@H]4C[C@@H]5CN(CC6CCCOC6)C[C@@H]5C4)nn3)ccc2n1 (single isomer, unassigned) [Example 36] | 4 | 0.0997 | – | – |
| Cn1cc2cc(-c3cc(C(F)(F)F)c(N[C@H]4C[C@@H]5CN(CC6CCCOC6)C[C@@H]5C4)nn3)ccc2n1 (single isomer, unassigned) [Example 37] | – | 0.0761 | 5 | – |
| Cc1ccc(F)cc1-c1cc(C(F)(F)F)c(N[C@H]2C[C@@H]3CN(CC4CCCCO4)C[C@@H]3C2)nn1 (single isomer, unassigned) [Example 118] | 3 | 0.0125 | – | – |
| Cc1ccc(F)cc1-c1cc(C(F)(F)F)c(N[C@H]2C[C@@H]3CN(CC4CCCCO4)C[C@@H]3C2)nn1 (single isomer, unassigned) [Example 119] | – | 0.014 | 3 | – |
| Cc1ccc(F)cc1-c1cc(C(F)(F)F)c(N[C@H]2C[C@@H]3CN(CC4CCCOC4)C[C@@H]3C2)nn1 (single isomer, unassigned) [Example 120] | 3 | 0.0103 | – | – |
| Cc1ccc(F)cc1-c1cc(C(F)(F)F)c(N[C@H]2C[C@@H]3CN(CC4CCCOC4)C[C@@H]3C2)nn1 (single isomer, unassigned) [Example 121] | – | 0.0101 | 3 | – |
| Cn1cc2cc(-c3cc(C#N)c(N[C@H]4C[C@@H]5CN(CC6CCCOC6)C[C@@H]5C4)nn3)ccc2n1 (single isomer, unassigned) [Example 158] | 14 | 0.0157 | – | – |
| Cn1cc2cc(-c3cc(C#N)c(N[C@H]4C[C@@H]5CN(CC6CCCOC6)C[C@@H]5C4)nn3)ccc2n1 (single isomer, unassigned) [Example 159] | – | 0.0115 | 10 | – |
| Cn1cc2cc(-c3nnc(N[C@H]4C[C@@H]5CN(CC6CCOCC6)C[C@@H]5C4)cc3C(F)(F)F)ccc2n1 [Example 1, (3aR,5s,6aS)—N-(6-(2-Methyl-2H-indazol-5-yl)-5-(trifluoromethyl)pyridazin-3-yl)-2-((tetrahydro-2H-pyran-4-yl)methyl)octahydrocyclopenta[c]pyrrol-5-amine] | – | 0.00563 | 2 | – |
| Cc1ccc(F)cc1-c1cc(C(F)(F)F)c(O[C@H]2C[C@@H]3CN(CC4CCOCC4)C[C@@H]3C2)nn1 [Example 5, (3aR,5s,6aS)-5-((6-(5-fluoro-2-methylphenyl)-4-(trifluoromethyl)pyridazin-3-yl)oxy)-2-((tetrahydro-2H-pyran-4-yl)methyl)octahydrocyclopenta[c]pyrrole] | – | 1.24 | 7 | – |
| C[C@H]1CCCN(c2cc(C(F)(F)F)c(N[C@H]3C[C@@H]4CN(CC5CCOCC5)C[C@@H]4C3)nn2)C1 [Example 6, (3aR,5s,6aS)—N-(6-((S)-3-methylpiperidin-1-yl)-4-(trifluoromethyl)pyridazin-3-yl)-2-((tetrahydro-2H-pyran-4-yl)methyl)octahydrocyclopenta[c]pyrrol-5-amine] | – | 1.22 | 4 | – |
| Cc1c(-c2nnc(N(C)[C@H]3C[C@@H]4CN(CC5CCOCC5)C[C@@H]4C3)cc2C(F)(F)F)ccc2nn(C)cc12 [Example 7, (3aR,5s,6aS)—N-(6-(2,4-dimethyl-2H-indazol-5-yl)-5-(trifluoromethyl)pyridazin-3-yl)-N-(methyl-d3)-2-((tetrahydro-2H-pyran-4-yl)methyl)octahydrocyclopenta [c]pyrrol-5-amine] | – | 3.67 | – | – |
| [2H]C([2H])([2H])N(c1cc(C(F)(F)F)c(-c2ccc3nn(C)cc3c2C)nn1)[C@H]1C[C@@H]2CN(CC3CCOCC3)C[C@@H]2C1 [Example 7, (3aR,5s,6aS)—N-(6-(2,4-dimethyl-2H-indazol-5-yl)-5-(trifluoromethyl)pyridazin-3-yl)-N-(methyl-d3)-2-((tetrahydro-2H-pyran-4-yl)methyl)octahydrocyclopenta [c]pyrrol-5-amine] | – | – | 15 | – |
| Cc1cc(CN2C[C@H]3C[C@H](Nc4ncc(-c5cc(F)ccc5Cl)cn4)C[C@H]3C2)ccc1F [Example 9, (3aR,5s,6aS)-N-(5-(2-chloro-5-fluorophenyl)pyrimidin-2-yl)-2-(4-fluoro-3-methylbenzyl)octahydro-cyclopenta[c]pyrrol-5-amine] | 27 | > 10 | – | – |
| Fc1ccc(Cl)c(-c2nnc(N[C@H]3C[C@@H]4CN(CC5CCOCC5)C[C@@H]4C3)cc2C(F)(F)F)c1 [Example 10, (3aR,5s,6aS)-N-(6-(2-chloro-5-fluorophenyl)-5-(trifluoro-methyl)pyridazin-3-yl)-2-((tetrahydro-2H-pyran-4-yl)methyl)octahydro-cyclopenta[c]pyrrol-5-amine] | 3 | 0.00206 | – | – |
| Cn1cc2cc(-c3cnc(N[C@H]4C[C@@H]5CN(CC6CCOCC6)C[C@@H]5C4)nc3)ccc2n1 [Example 12, (3aR,5s,6aS)-N-(5-(2-methyl-2H-indazol-5-yl)pyrimidin-2-yl)-2-((tetrahydro-2H-pyran-4-yl)methyl)octahydro-cyclopenta[c]pyrrol-5-amine] | – | 2.75 | – | 10 |
| Cn1cc2cc(-c3cnc(N[C@H]4C[C@@H]5CN(Cc6ccc7c(c6)OCO7)C[C@@H]5C4)nc3)ccc2n1 [Example 13, (3aR,5s,6aS)-2-(benzo[d][1,3]dioxol-5-ylmethyl)-N-(5-(2-methyl-2H-indazol-5-yl)pyrimidin-2-yl)octahydro-cyclopenta[c]pyrrol-5-amine] | 10 | 5.29 | – | – |
| Cn1cc2cc(-c3cnc(N[C@H]4C[C@@H]5CN(CCC(C)(C)C)C[C@@H]5C4)nc3)ccc2n1 [Example 14, (3aR,5s,6aS)-2-(3,3-dimethyl-butyl)-N-(5-(2-methyl-2H-indazol-5-yl)pyrimidin-2-yl)octahydro-cyclopenta[c]pyrrol-5-amine] | 4 | 0.394 | – | – |
| CC(C)(C)CCN1C[C@H]2C[C@H](Nc3ncc(-c4cc(F)ccc4Cl)cn3)C[C@H]2C1 [Example 15, (3aR,5s,6aS)-N-(5-(2-chloro-5-fluorophenyl)pyrimidin-2-yl)-2-(3,3-dimethylbutyl)octahydro-cyclopenta[c]pyrrol-5-amine] | 3 | 3.33 | – | – |
| [2H]C([2H])(C1CCOCC1)N1C[C@H]2C[C@H](Nc3nnc(-c4cc(F)ccc4Cl)cc3C(F)(F)F)C[C@H]2C1 [Example 16, (3aR,5s,6aS)-N-(6-(2-chloro-5-fluorophenyl)-4-(trifluoro-methyl)pyridazin-3-yl)-2-((tetrahydro-2H-pyran-4-yl)methyl-d2)octahydro-cyclopenta[c]pyrrol-5-amine] | 3 | 0.0092 | – | – |

— patent publication US20230183219A1, “CONDENSED SUBSTITUTED HYDROPYRROLES AS ANTAGONISTS OF THE MUSCARINIC ACETYLCHOLINE RECEPTOR M4” (Vanderbilt University, priority 2020, published 2023)
